Entries after “also recorded” stand apart in the source; their conditions may differ. Read-outs that look alike come from different tables or passages of the source.
Columns and labels:
[1] = biological target: T1, P2Y4-R (Homo sapiens, UniProt P51582); assay: [Ca2+]i increase in 1321N1 astrocytoma cells expressing P2Y4-R; assay type: cell-based; conditions: n.d.r = no detectable response up to 100 μM
T1 construct: expressed in transfected cells; host or cells: 1321N1 astrocytoma cells
Protocol: (§1) Green fluorescent protein (GFP) constructs of human P2Y2-R, P2Y4-R and P2Y6-R were expressed in 1321N1 astrocytoma cells, which lack endogenous expression of P2X- and P2Y-receptors. The respective cDNA of the receptor gene was cloned into a pEGFPN1 vector. After transfection using FuGENE 6 Transfection Reagent (Roche Molecular Biochemicals, Mannheim, Germany), the cells were selected with 0.5 mg/ml G418 (geneticine; Merck Chemicals, Darmstadt, Germany) and grown in Dulbecco's modified Eagles' medium (DMEM) supplemented with 10% fetal calf serum, 100 U/ml penicillin and […] at 37° C. and 5% CO2. The expression and cell membrane localization of the respective P2Y receptors was confirmed through the analysis of the GFP fluorescence. The functionality of the expressed GFP-labeled receptor in cells was verified by recording a change of [Ca^2+]i after stimulation with the appropriate receptor agonist.
(§2) 1321N1 astrocytoma cells transfected with the respective plasmid for P2YR-GFP expression plated on coverslips (22 mm diameter) and grown to approximately 80% density were incubated with 2 μM fura 2/AM and 0.02% pluronic acid in Na-HBS buffer (Hepes buffered saline: 145 mM NaCl, 5.4 mM KCl, 1.8 mM CaCl2, 1 mM MgCl2, 25 mM glucose, 20 mM Hepes/Tris pH 7.4) for 30 min at 37° C. The cells were superfused (1 ml/min, 37° C.) with different concentrations of nucleotide in Na-HBS buffer, and the nucleotide-induced change of [Ca^2+]i was measured by detecting the respective emission intensity of fura 2/AM at 510 nm with after 340 nm and 380 nm excitations (Ubl et al., 1998). The average maximal amplitude of the responses and the respective standard errors were calculated from the ratio of the fura 2/AM fluorescence intensities with excitations at 340 nm and 380 nm (only MT-labeled cells were analysed). Microsoft Excel (Microsoft Corp., Redmond, Wash., USA) and SigmaPlot (SPSS Inc., Chicago, Ill., USA) were used to derive the concentration-response curves and EC50 values from the average response amplitudes obtained in at least three independent experiments (Ecke et al., 2006, 2008). Only cells with a clear MT-signal and with the typical calcium response kinetics upon agonist pulse application were included in the data analysis. The GFP-tagged P2Y receptors are suitable for pharmacological and physiological studies, as previously reported (Tulapurkar et al., 2004, 2006; Zylberg et al., 2007).
(§3) In this study, analogues 13-17 were tested for their potency and selectivity at P2Y2,4,6-receptors based on measurements of increases in intracellular calcium concentrations in 1321N1 astrocytoma cells transfected with the respective plasmid, as described in Materials and Methods, and the results are summarized in Table 2.

[2] = biological target: T2, P2Y2-R (Homo sapiens, UniProt P41231); assay: [Ca2+]i increase in 1321N1 astrocytoma cells expressing P2Y2-R; assay type: cell-based; design: expressed in transfected cells; host or cells: 1321N1 astrocytoma cells
Protocol: as §1, §2, §3

[3] = biological target: T3, P2Y6-R (Homo sapiens, UniProt Q15077); assay: [Ca2+]i increase in 1321N1 astrocytoma cells expressing P2Y6-R; assay type: cell-based; conditions: for EC50: 1321N1 astrocytoma cells, [Ca2+]i, read-out: Potencies (EC50) at the P2Y6-R; for Activity at the P2Y6-R (in words): 1321N1 cells
T3 construct: expressed in transfected cells; host or cells: 1321N1 astrocytoma cells
Protocol: as §1, §2
1321N1 cell lines stably expressing the human P2Y6 receptors were grown as previously described in DMEM (5% FBS, 100 IU/ml penicillin, 100 μg/ml streptomycin, 1× Glutamax, 10 mM Hepes and 0.5 mg/ml G-418) at 37° C. in a humidified atmosphere containing 5% CO2 and 95% air (Gendron et al., 2003).
1321N1 cells (10×10^6 cells grown in 10 cm^2 dishes) were harvested by a brief trypsin/EDTA treatment, suspended in complete culture medium, and washed by centrifugation for 3 min at 100×g before being incubated with 1 μM Fluo 4/AM in 4.5 ml HBSS with Ca^2+ and Mg^2+ (Wisent, St. Bruno, QC) for 25 min at 37° C. Cells were washed by centrifugation (100×g, 3 min), suspended in HBSS containing Ca^2+ and Mg^2+, and incubated for 25 min at 37° C. Cells were washed and suspended in 16 ml of FIBSS containing Ca^+ and Mg^2+. Cell suspension (2 ml) was gently stirred in a quartz cuvette while [Ca^2+]i and monitored on a RF-5301 PC Shimadzu spectrofluorometer with Panormama fluorescence 1.1 software (Man-Tech, Guelph, ON). Excitation wavelengths of 488 nm and emission wavelength of 520 nm were used to measure changes in intracellular Fluo 4 fluorescence intensity (F). At the end of each recording, maximal fluorescence (Fmax) and minimal fluorescence (Fmin) were determined by adding successively 0.1% Triton X-100 and 50 mM EDTA to cell suspensions. The following equation from Grynkiewicz et al. (1985) was used to relate the fluorescence intensity to Ca^2+ levels: [Ca^2+]=Kd×(F−Fmin)/(Fmax−F), wherein Kd is the Ca^+ dissociation constant of the indicator (345 nM). […]

[4] = biological target: P2Y2 receptor (Rattus norvegicus, UniProt P41232); conditions: compared to ATP and UTP; Tulapurkar et al., 2004; cited from earlier work
[5] = test system: intraocular pressure in normotense rabbits; conditions: cited from earlier work
[6] = physchem; conditions: for Rate constant of phosphate ester hydrolysis at pH 1.4: pH 1.4, 37° C., pseudo-first-order
Protocol: All stability experiments were performed in duplicates.
The stability of UDP, 11, 12 and 13A in a buffer solution (pH 1.4) was evaluated by ^31P NMR at 37° C. for monitoring possible dephosphorylation products (the signal of the phosphate hydrolysis products is at ˜0 ppm, while that of the borano phosphate analogues is at ˜85 ppm). NMR spectra were recorded on a Bruker DMX-600 spectrometer with a ^31P NMR probe (isotope frequency of 240 MHz) using 85% H3PO4 as an external reference.
Sodium salts of UDP, 11, 12 and 13A were dissolved in 0.45 ml of KCl/HCl buffer (pH 1.4) and D2O (0.05 ml) was added. The final pH was adjusted to pH 1.4. pH measurements were performed with an Metrohm pH electrode and a Metrohm 827 meter. Spectra were recorded at 15 min, 1 h, or 24 h time intervals at 37° C. For experiments that were several days long, the solution was kept in an oil bath at 37° C. and spectra were recorded at ca. 24 h time intervals. The phosphate ester hydrolysis rate was determined by measuring the change of the integration of one of the phosphates signals of the starting material with time.

[7] = biological target: T2, P2Y2-R; conditions: Ginsburg-Shmuel et al., 2010; read-out: EC50 at P2Y2-R (literature); cited from earlier work
[8] = 1321N1 astrocytoma cells, [Ca2+]i, n.d.r = no detectable response up to 100 μM

T2 sequence (P41231 whole entry): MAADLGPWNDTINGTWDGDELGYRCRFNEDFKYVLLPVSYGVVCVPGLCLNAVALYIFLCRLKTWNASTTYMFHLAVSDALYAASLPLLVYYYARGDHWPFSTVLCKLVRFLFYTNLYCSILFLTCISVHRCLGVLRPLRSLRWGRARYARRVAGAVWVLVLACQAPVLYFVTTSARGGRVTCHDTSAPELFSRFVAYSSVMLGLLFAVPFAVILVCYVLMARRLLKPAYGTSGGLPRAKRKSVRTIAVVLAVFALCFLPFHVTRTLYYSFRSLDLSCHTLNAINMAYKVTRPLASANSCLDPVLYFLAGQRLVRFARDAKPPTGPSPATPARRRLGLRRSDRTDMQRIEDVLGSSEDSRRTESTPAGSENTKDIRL
T1 sequence (P51582 whole entry): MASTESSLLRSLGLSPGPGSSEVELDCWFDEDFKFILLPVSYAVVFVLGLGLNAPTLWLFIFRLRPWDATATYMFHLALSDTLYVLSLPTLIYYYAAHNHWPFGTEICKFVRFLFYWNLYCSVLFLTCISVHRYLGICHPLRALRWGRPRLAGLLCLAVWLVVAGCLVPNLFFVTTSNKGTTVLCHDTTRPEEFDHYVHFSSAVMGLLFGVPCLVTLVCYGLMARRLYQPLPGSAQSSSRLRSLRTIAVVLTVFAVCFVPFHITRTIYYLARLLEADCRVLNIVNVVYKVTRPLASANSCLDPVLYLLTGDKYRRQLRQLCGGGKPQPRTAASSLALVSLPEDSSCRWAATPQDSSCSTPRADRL
T3 sequence (Q15077 whole entry): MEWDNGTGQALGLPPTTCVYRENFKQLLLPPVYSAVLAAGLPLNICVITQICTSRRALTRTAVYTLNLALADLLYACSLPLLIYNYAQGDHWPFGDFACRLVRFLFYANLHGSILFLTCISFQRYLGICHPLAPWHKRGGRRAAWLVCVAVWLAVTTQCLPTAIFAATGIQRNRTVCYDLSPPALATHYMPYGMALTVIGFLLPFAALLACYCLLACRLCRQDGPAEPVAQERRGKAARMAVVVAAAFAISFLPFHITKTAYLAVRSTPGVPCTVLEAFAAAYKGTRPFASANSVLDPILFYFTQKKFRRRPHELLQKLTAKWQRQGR
P2Y2 receptor, sequence (P41232 whole entry): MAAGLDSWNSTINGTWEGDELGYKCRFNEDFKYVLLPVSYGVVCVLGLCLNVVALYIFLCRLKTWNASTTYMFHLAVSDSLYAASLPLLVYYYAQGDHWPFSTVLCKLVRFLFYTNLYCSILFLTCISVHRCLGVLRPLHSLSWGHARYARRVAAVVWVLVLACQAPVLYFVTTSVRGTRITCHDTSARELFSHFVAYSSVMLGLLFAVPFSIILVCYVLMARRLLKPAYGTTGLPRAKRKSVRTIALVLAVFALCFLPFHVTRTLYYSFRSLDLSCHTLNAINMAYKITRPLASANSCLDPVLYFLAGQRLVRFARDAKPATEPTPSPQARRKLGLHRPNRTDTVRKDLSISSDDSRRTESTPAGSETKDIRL

SMILES | Potencies (EC50) at the P2Y4-R [1] | Potencies (EC50) at the P2Y2-R [2, 8] | EC50 [3] [nM] | other results
[BH3-][P+](O)(OCC1OC(n2cc(OC)c(=O)[nH]c2=O)C(O)C1O)OP(=O)(O)O (single isomer, unassigned) [Analogue 13B, 5-methoxyuridine-5′-O-(α-boranodiphosphate)] | n.d.r | n.d.r | 4300 | 
BP(=O)(OC[C@H]1O[C@@H](n2cnc3c(N)ncnc32)[C@H](O)[C@@H]1O)OP(=O)(O)OP(=O)(O)O (stereo partly drawn) [ATP(α-B)] |  |  |  | Response at the P2Y2 receptor (in words, literature) [4]: very weak response
CSc1nc(N)c2ncn([C@@H]3O[C@H](COP(=O)(O)OP(=O)(O)C(Cl)(Cl)P(=O)(O)O)[C@@H](O)[C@H]3O)c2n1 [2MeS-adenosine-β,γ-CCl2-5′-triphosphate] |  |  |  | Duration of effect on IOP (literature) [5]: about 5 hours; Reduction of IOP (literature) [5]: 32%; EC50 ([5]; read-out: EC50 of IOP reduction (literature)): 95.5 nM
[BH3-][P+](O)(OCC1OC(n2cc(OC)c(=O)[nH]c2=O)C(O)C1O)OP(=O)(O)OP(=O)(O)OCC1OC(n2cc(OC)c(=O)[nH]c2=O)C(O)C1O (single isomer, unassigned) [Analogue 16B, di-(5-OMe)-uridine 5′,5″-P^1,P^3,α-boranotriphosphate] | n.d.r | n.d.r | 2200 | 
[BH3-][P+](O)(OC[C@H]1O[C@@H](n2cc(OC)c(=O)[nH]c2=O)[C@H](O)[C@@H]1O)OP(=O)(O)OP(=O)(O)O (single isomer, unassigned) [Analogue 14B, 5-methoxyuridine-5′-O-(α-boranotriphosphate)] | n.d.r | n.d.r | 20100 ± 700 | 
BP(=O)(OC[C@H]1O[C@@H](n2cc(OC)c(=O)[nH]c2=O)[C@H](O)[C@@H]1O)OP(=O)(O)OP(=O)(O)O (stereo partly drawn) [Analogue 14, 5-methoxyuridine-5′-O-(α-boranotriphosphate)] |  |  |  | Activity at the P2Y2-receptor (in words) ([2]; 1321N1 cells): completely inactive; Activity at the P2Y6-R (in words) [3]: hardly active
[BH3-][P+](O)(OC[C@H]1O[C@@H](n2ccc(=O)[nH]c2=O)[C@H](O)[C@@H]1O)OP(=O)(O)O (stereo partly drawn) [Analogue 11, Uridine-5′-O-(α-boranodiphophate), reference compound] |  |  |  | Rate constant of phosphate ester hydrolysis at pH 1.4 [6]: 1.14×10^−5 s^−1; Half-life in human blood serum: 21 h
BP(=O)(OCC1OC(n2cc(OC)c(=O)[nH]c2=O)C(O)C1O)OP(=O)(O)O (stereo not drawn) [Analogue 13, 5-methoxyuridine-5′-O-(α-boranodiphosphate)] |  |  |  | Half-life (t1/2) of hydrolysis at pH 1.4 ([6]; buffer, pH 1.4): 16.9 h; Rate constant of phosphate ester hydrolysis at pH 1.4 [6]: 1.31×10^−5 s^−1
[BH3-][P+](O)(OCC1OC(n2cc(OC)c(=O)[nH]c2=O)C(O)C1O)OP(=O)(O)OP(=O)(O)OCC1OC(n2cc(OC)c(=O)[nH]c2=O)C(O)C1O (single isomer, unassigned) [Analogue 16A, di-(5-OMe)-uridine 5′,5″-P^1,P^3,α-boranotriphosphate] | n.d.r | n.d.r | 60 | Less potent than mono-nucleotide counterpart 13A at P2Y6-R ([3]; ratio of EC50 values): about 9 times
[BH3-][P+](O)(OP(=O)(O)OC[C@H]1O[C@@H](n2cc(OC)c(=O)[nH]c2=O)[C@H](O)[C@@H]1O)OP(=O)(O)OC[C@H]1O[C@@H](n2cc(OC)c(=O)[nH]c2=O)[C@H](O)[C@@H]1O [Analogue 17, di-(5-OMe)-uridine 5″5″-P^1,P^3,β-boranotriphosphate] | n.d.r | n.d.r | 200 | 
O=c1ccn([C@@H]2O[C@H](COP(=O)(O)OP(=O)(O)OP(=O)(O)O)[C@@H](O)[C@H]2O)c(=O)[nH]1 [UTP, reference compound] |  |  |  | EC50 [7]: 100 nM; EC50 ([1]; read-out: Potencies (EC50) at the P2Y4-R): 900 nM; EC50 ([2]; 1321N1 astrocytoma cells, [Ca2+]i, n.d.r = no detectable response up to 100 μM, read-out: Potencies (EC50) at the P2Y2-R): 140 nM
[BH3-][P+](O)(OC[C@H]1O[C@@H](n2cc(OC)c(=O)[nH]c2=O)[C@H](O)[C@@H]1O)OP(=O)(O)OP(=O)(O)O (single isomer, unassigned) [Analogue 14A, 5-methoxyuridine-5′-O-(α-boranotriphosphate)] | n.d.r | n.d.r | 11200 ± 630 | 
COc1cn([C@@H]2O[C@H](COP(=O)(O)OP(=O)(O)OP(=O)(O)OC[C@H]3O[C@@H](n4cc(OC)c(=O)[nH]c4=O)[C@H](O)[C@@H]3O)[C@@H](O)[C@H]2O)c(=O)[nH]c1=O [Analogue 15, di-(5-OMe)-uridine 5′,5″-P^1,P^3, triphosphate] | n.d.r | n.d.r | > 10000 | Activity at the P2Y6-R (in words) [3]: least active P2Y6-R agonist; also recorded: weakest potency among the tested nucleotides

From US9221868B2, “Uridine di- or tri-phosphate derivatives and uses thereof” (BAR-ILAN UNIVERSITY, priority 2010, dated 2015)
